Reference: ChEMBL document CHEMBL1275341, “Synthesis and antimalarial activities of rhenium bioorganometallics based on the 4-aminoquinoline structure” (Bioorg Med Chem, 2010)

Tests used:
[1] = tested on: Plasmodium falciparum; test: Antimalarial activity against chloroquine-susceptible Plasmodium falciparum 3D7 infected in human A+ RBC assessed as inhibition of [3H]hypoxanthine uptake after 48 hrs by scintillation counting; format: functional, organism-based
[2] = tested on: Plasmodium falciparum; test: Antimalarial activity against chloroquine-resistant Plasmodium falciparum W2 infected in human A+ erythrocytes assessed as inhibition of [3H]hypoxanthine uptake after 48 hrs by scintillation counting; format: functional, organism-based

Row | SMILES | IC50 [1] | IC50 [2]
1 | Clc1ccc2c(NCCNCc3ccc4ccccc4c3)ccnc2c1 | 48 nM | 820 nM
2 | Clc1ccc2c(NCCNCc3cccc4ccccc34)ccnc2c1 | 471 nM | 1200 nM
3 | Clc1ccc2c(NCCNCc3c4ccccc4cc4ccccc34)ccnc2c1 | 84 nM | 797 nM
